Reference: US10118901B2 (priority 2013, dated 2018)

Columns and labels:
Format in all cases: cell-based, human
[1] = test system: IGROV1; test: NCI-60 screen at 10 μM: IGROV1; settings: Ovarian Cancer IGROV1; 10 μM single dose; 48 hrs
Procedure: (§1) NL-101 and CY-102 was sent to U.S. National Cancer Institute (NCI) for NCI 60-cell line screening using a single compound dose (10 μM).
(§2) The human tumor cell lines of the cancer screening panel were grown in RPMI 1640 medium containing 5% fetal bovine serum (5% FBS) and 2 mM L-glutamine. For a typical screening experiment, cells were inoculated into 96-well microtiter plates in 100 μL, at plating densities ranging from 5,000 to 40,000 cells/well depending on the doubling time of individual cell lines. After cell inoculation, the microtiter plates were incubated at 37° C., 5% CO2, 95% air, and 100% relative humidity for 24 h prior to addition of experimental compounds. […]
(§3) Following drug addition, the plates were incubated for an additional 48 hrs at 37° C., 5% CO2, 95% air, and 100% relative humidity. […] Bound stain was subsequently solubilized with 10 mM trizma base, and the absorbance was read on an automated plate reader at a wavelength of 515 nm. […]
(§4) Using the seven absorbance measurements [time zero, (Tz), control growth, (C), and test growth in the presence of drug at the 10 μM concentration levels (Ti)], percentage growth was calculated at each of the drug concentrations levels. Percentage growth inhibition was calculated as: [(Ti−Tz)/(C−Tz)]×100 for which Ti>/=Tz or [(Ti−Tz)/Tz]×100 for which Ti<Tz.

[2] = test system: KM12; test: NCI-60 screen at 10 μM: KM12; settings: Colon Cancer KM12; 10 μM single dose; 48 hrs
Procedure: as §1, §2, §3, §4

[3] = test system: MCF7; test: NCI-60 screen at 10 μM: MCF7; settings: Breast Cancer MCF7; 10 μM single dose; 48 hrs
Procedure: as §1, §2, §3, §4

[4] = test system: RXF 393; test: NCI-60 screen at 10 μM: RXF 393; settings: Renal Cancer RXF 393; 10 μM single dose; 48 hrs
Procedure: as §1, §2, §3, §4

[5] = test system: DU-145; test: NCI-60 screen at 10 μM: DU-145; settings: Prostate Cancer DU-145; 10 μM single dose; 48 hrs
Procedure: as §1, §2, §3, §4

[6] = test system: SN12C; test: NCI-60 screen at 10 μM: SN12C; settings: Renal Cancer SN12C; 10 μM single dose; 48 hrs
Procedure: as §1, §2, §3, §4

[7] = test system: OVCAR-3; test: NCI-60 screen at 10 μM: OVCAR-3; settings: Ovarian Cancer OVCAR-3; 10 μM single dose; 48 hrs
Procedure: as §1, §2, §3, §4

[8] = test system: SK-MEL-5; test: NCI-60 screen at 10 μM: SK-MEL-5; settings: Melanoma SK-MEL-5; 10 μM single dose; 48 hrs
Procedure: as §1, §2, §3, §4

[9] = test system: SW-620; test: NCI-60 screen at 10 μM: SW-620; settings: Colon Cancer SW-620; 10 μM single dose; 48 hrs
Procedure: as §1, §2, §3, §4

[10] = test system: M14; test: NCI-60 screen at 10 μM: M14; settings: Melanoma M14; 10 μM single dose; 48 hrs
Procedure: as §1, §2, §3, §4

[11] = test system: HCT-15; test: NCI-60 screen at 10 μM: HCT-15; settings: Colon Cancer HCT-15; 10 μM single dose; 48 hrs
Procedure: as §1, §2, §3, §4

[12] = test system: OVCAR-4; test: NCI-60 screen at 10 μM: OVCAR-4; settings: Ovarian Cancer OVCAR-4; 10 μM single dose; 48 hrs
Procedure: as §1, §2, §3, §4

[13] = test system: SK-OV-3; test: NCI-60 screen at 10 μM: SK-OV-3; settings: Ovarian Cancer SK-OV-3; 10 μM single dose; 48 hrs
Procedure: as §1, §2, §3, §4

[14] = test system: MDA-MB-435; test: NCI-60 screen at 10 μM: MDA-MB-435; settings: Melanoma MDA-MB-435; 10 μM single dose; 48 hrs
Procedure: as §1, §2, §3, §4

[15] = test system: BT-549; test: NCI-60 screen at 10 μM: BT-549; settings: Breast Cancer BT-549; 10 μM single dose; 48 hrs
Procedure: as §1, §2, §3, §4

[16] = test system: LOX IMVI; test: NCI-60 screen at 10 μM: LOX IMVI; settings: Melanoma LOX IMVI; 10 μM single dose; 48 hrs
Procedure: as §1, §2, §3, §4

[17] = test system: HCT-116; test: NCI-60 screen at 10 μM: HCT-116; settings: Colon Cancer HCT-116; 10 μM single dose; 48 hrs
Procedure: as §1, §2, §3, §4

[18] = test system: PC-3; test: NCI-60 screen at 10 μM: PC-3; settings: Prostate Cancer PC-3; 10 μM single dose; 48 hrs
Procedure: as §1, §2, §3, §4

[19] = test system: SK-MEL-2; test: NCI-60 screen at 10 μM: SK-MEL-2; settings: Melanoma SK-MEL-2; 10 μM single dose; 48 hrs
Procedure: as §1, §2, §3, §4

[20] = test system: SNB-75; test: NCI-60 screen at 10 μM: SNB-75; settings: CNS Cancer (Glioma) SNB-75; 10 μM single dose; 48 hrs
Procedure: as §1, §2, §3, §4

[21] = test system: HT29; test: NCI-60 screen at 10 μM: HT29; settings: Colon Cancer HT29; 10 μM single dose; 48 hrs
Procedure: as §1, §2, §3, §4

[22] = test system: HS 578T; test: NCI-60 screen at 10 μM: HS 578T; settings: Breast Cancer HS 578T; 10 μM single dose; 48 hrs
Procedure: as §1, §2, §3, §4

[23] = test system: UO-31; test: NCI-60 screen at 10 μM: UO-31; settings: Renal Cancer UO-31; 10 μM single dose; 48 hrs
Procedure: as §1, §2, §3, §4

[24] = test system: K-562; test: NCI-60 screen at 10 μM: K-562; settings: Leukemia K-562; 10 μM single dose; 48 hrs
Procedure: as §1, §2, §3, §4

Row | Compound | Growth % [1] [%] | Growth % [2] [%] | Growth % [3] [%] | Growth % [4] [%] | Growth % [5] [%] | Growth % [6] [%] | Growth % [7] [%] | Growth % [8] [%] | Growth % [9] [%] | Growth % [10] [%] | Growth % [11] [%] | Growth % [12] [%] | Growth % [13] [%] | Growth % [14] [%] | Growth % [15] [%] | Growth % [16] [%] | Growth % [17] [%] | Growth % [18] [%] | Growth % [19] [%] | Growth % [20] [%] | other results
1 | Cn1c(CCNCc2ccc(/C=C/C(=O)NO)cc2)nc2cc(N(CCCl)CCCl)ccc21 [CY-102] | −14.43 | −78.14 | −15.28 | −35.55 | −16.06 | −1.53 | −55.02 | −79.31 | 2.33 | −76.75 | 9.96 | −19.00 | −41.53 | −73.24 | −33.26 | −26.41 | −1.84 | −1.86 | −21.36 | −48.45 | Growth % [21]: −50.67%; Growth % [22]: 8.17%; Growth % [23]: −9.19%; Growth % [24]: 1.07%
2 | Cn1c(CCCCCCC(=O)NO)nc2cc(N(CCCl)CCCl)ccc21 [NL-101] | 55.99 | 65.79 | 37.24 | 5.95 | 18.47 | 17.91 | 50.40 | −6.55 | 30.40 | 39.93 | 76.48 | 68.52 | 34.40 | 49.07 | 79.21 | −23.43 | 23.73 | 51.40 | 37.31 | 19.79 | Growth % [21]: 37.10%; Growth % [22]: 24.01%; Growth % [23]: 63.69%; Growth % [24]: 31.63%
